The values below come from patent publication US10206394B2, “Herbicidal compounds” (Syngenta Participations AG, priority 2014, dated 2019).

SMILES strings stand for the structures. Read-outs that look alike come from different tables or passages of the source.

Holding throughout (test): Glasshouse assay for herbicidal activity (pre- and post-emergence), percentage phytotoxicity
Holding throughout (assay type): in vivo

Assay [1] relates to Echinochloa crus-galli (ECHCG). Particulars: Echinochloa crus-galli. Here is the method: (§1) Test—Glasshouse Assay for Herbicidal Activity
(§2) Seeds of a variety of monocotyledonous and dicotyledonous test plants are sown in standard soil in pots. The plants are cultivated for one day (for pre-emergence (PRE)) or for about 12 days (for post-emergence (POST)) under controlled conditions in a glasshouse (warm climate species at 24/18° C., cool climate species at 20/16° C., both at day/night; 16 hours light; 65% humidity).
(§3) The test plants are then grown on, in a glasshouse (greenhouse) under controlled conditions (warm climate species at 24/18° C., cool climate species at 20/16° C., both at day/night; 16 hours light; 65% humidity) and are watered twice daily. 15 days after application of the test herbicide (15 DAA) (for post-emergence), and 20 days after application of the test herbicide (20 DAA) (for pre-emergence), the test plants are evaluated visually, and an assessed percentage phytotoxicity score is given for each herbicidal application on each plant species (with 100%=total damage to plant; 0%=no damage to plant).
(§4) The plant species tested are as follows: Alopecurus myosuroides (ALOMY), Avena fatua (AVEFA), Lolium perenne (LOLPE), Echinochloa crus-galli (ECHCG).

The next assay relates to Lolium perenne (LOLPE). Conditions: Lolium perenne. On the procedure: as §1, §2, §3, §4
The subject of assay [2] is Alopecurus myosuroides (ALOMY). Conditions: for pest or weed control at 250 g/ha: Alopecurus myosuroides. On the procedure: as §1, §2, §3, §4
A further assay relates to Avena fatua (AVEFA). Conditions: Avena fatua. On the procedure: as §1, §2, §3, §4
Where [3] appears, read: post-emergence, 360 h, Rate 250 g/ha, post-emergence, assessed visually 15 DAA, 100%=total damage, 0%=no damage, read-out: Post-emergence herbicidal activity (percentage phytotoxicity) ECHCG POST.
Where [4] appears, read: pre-emergence, 480 h, Rate 250 g/ha, pre-emergence, assessed visually 20 DAA, 100%=total damage, 0%=no damage, read-out: Pre-emergence herbicidal activity (percentage phytotoxicity) ECHCG PRE.
[5] abbreviates: post-emergence, 360 h, Rate 250 g/ha, post-emergence, assessed visually 15 DAA, 100%=total damage, 0%=no damage, read-out: Post-emergence herbicidal activity (percentage phytotoxicity) LOLPE POST.
Setting [6] is: pre-emergence, 480 h, Rate 250 g/ha, pre-emergence, assessed visually 20 DAA, 100%=total damage, 0%=no damage, read-out: Pre-emergence herbicidal activity (percentage phytotoxicity) LOLPE PRE.
The mark [7] stands for this setting: post-emergence, 360 h, Rate 250 g/ha, post-emergence, assessed visually 15 DAA, 100%=total damage, 0%=no damage, read-out: Post-emergence herbicidal activity (percentage phytotoxicity) ALOMY POST.
The mark [8] stands for this setting: pre-emergence, 480 h, Rate 250 g/ha, pre-emergence, assessed visually 20 DAA, 100%=total damage, 0%=no damage, read-out: Pre-emergence herbicidal activity (percentage phytotoxicity) ALOMY PRE.
Setting [9] is: post-emergence, 360 h, Rate 250 g/ha, post-emergence, assessed visually 15 DAA, 100%=total damage, 0%=no damage, read-out: Post-emergence herbicidal activity (percentage phytotoxicity) AVEFA POST.
Setting [10] is: pre-emergence, 480 h, Rate 250 g/ha, pre-emergence, assessed visually 20 DAA, 100%=total damage, 0%=no damage, read-out: Pre-emergence herbicidal activity (percentage phytotoxicity) AVEFA PRE.
Where [11] appears, read: post-emergence, 360 h, POST-emergence, rate 250 g/ha, visual score 15 DAA (100%=total damage, 0%=no damage), read-out: Post-emergence herbicidal activity (percentage phytotoxicity) ECHCG POST.
[12] abbreviates: pre-emergence, 480 h, PRE-emergence, rate 250 g/ha, visual score 20 DAA (100%=total damage, 0%=no damage), read-out: Pre-emergence herbicidal activity (percentage phytotoxicity) ECHCG PRE.
[13] abbreviates: post-emergence, 360 h, POST-emergence, rate 250 g/ha, visual score 15 DAA (100%=total damage, 0%=no damage), read-out: Post-emergence herbicidal activity (percentage phytotoxicity) LOLPE POST.
Setting [14] is: pre-emergence, 480 h, PRE-emergence, rate 250 g/ha, visual score 20 DAA (100%=total damage, 0%=no damage), read-out: Pre-emergence herbicidal activity (percentage phytotoxicity) LOLPE PRE.
[15] abbreviates: post-emergence, 360 h, POST-emergence, rate 250 g/ha, visual score 15 DAA (100%=total damage, 0%=no damage), read-out: Post-emergence herbicidal activity (percentage phytotoxicity) ALOMY POST.
Setting [16] is: pre-emergence, 480 h, PRE-emergence, rate 250 g/ha, visual score 20 DAA (100%=total damage, 0%=no damage), read-out: Pre-emergence herbicidal activity (percentage phytotoxicity) ALOMY PRE.
The mark [17] stands for this setting: post-emergence, 360 h, POST-emergence, rate 250 g/ha, visual score 15 DAA (100%=total damage, 0%=no damage), read-out: Post-emergence herbicidal activity (percentage phytotoxicity) AVEFA POST.
[18] abbreviates: pre-emergence, 480 h, PRE-emergence, rate 250 g/ha, visual score 20 DAA (100%=total damage, 0%=no damage), read-out: Pre-emergence herbicidal activity (percentage phytotoxicity) AVEFA PRE.

As to `Cc1cc(-c2ncc(Cl)cc2F)cc(C)c1C1C(=O)CC(CC(=O)NCc2ccsc2)C1=O` (stereo not shown) [Compound A130], the pest or weed control at 250 g/ha in assay [1] (setting [3]) was determined as 100%; in assay [1] (setting [4]), 100%; in the assay on Lolium perenne (LOLPE) (setting [5]), 100%; in the assay with Lolium perenne (LOLPE) (setting [6]), 90%; in assay [2] (setting [7]), 90%; in assay [2] (setting [8]) it was 70%. Further, the values for the pest or weed control at 250 g/ha in the assay on Avena fatua (AVEFA) (setting [9]) and in the assay on Avena fatua (AVEFA) (setting [10]) were 100% and 90%, respectively.
For `Cc1cc(-c2ncc(F)cc2F)cc(C)c1C1C(=O)CC(CC(=O)NCc2ccc(F)cc2)C1=O` (stereo not shown) [Compound B72], the pest or weed control at 250 g/ha in assay [1] (post-emergence, 360 h, 250 g/ha, post-emergence, 15 DAA, visual assessment (100%=total damage, 0%=no damage), read-out: Post-emergence herbicidal activity (percentage phytotoxicity) ECHCG POST) came to 100%; in assay [1] (pre-emergence, 480 h, 250 g/ha, pre-emergence, 20 DAA, visual assessment (100%=total damage, 0%=no damage), read-out: Pre-emergence herbicidal activity (percentage phytotoxicity) ECHCG PRE), 100%; with Lolium perenne (LOLPE) (post-emergence, 360 h, 250 g/ha, post-emergence, 15 DAA, visual assessment (100%=total damage, 0%=no damage), read-out: Post-emergence herbicidal activity (percentage phytotoxicity) LOLPE POST) it was 100%; in the assay with Lolium perenne (LOLPE) (pre-emergence, 480 h, 250 g/ha, pre-emergence, 20 DAA, visual assessment (100%=total damage, 0%=no damage), read-out: Pre-emergence herbicidal activity (percentage phytotoxicity) LOLPE PRE) it was 100%; in assay [2] (post-emergence, 360 h, 250 g/ha, post-emergence, 15 DAA, visual assessment (100%=total damage, 0%=no damage), read-out: Post-emergence herbicidal activity (percentage phytotoxicity) ALOMY POST) it was 100%; in assay [2] (pre-emergence, 480 h, 250 g/ha, pre-emergence, 20 DAA, visual assessment (100%=total damage, 0%=no damage), read-out: Pre-emergence herbicidal activity (percentage phytotoxicity) ALOMY PRE) it was 100%. Besides, the pest or weed control at 250 g/ha is 100% in the assay with Avena fatua (AVEFA) (post-emergence, 360 h, 250 g/ha, post-emergence, 15 DAA, visual assessment (100%=total damage, 0%=no damage), read-out: Post-emergence herbicidal activity (percentage phytotoxicity) AVEFA POST) and 70% with Avena fatua (AVEFA) (pre-emergence, 480 h, 250 g/ha, pre-emergence, 20 DAA, visual assessment (100%=total damage, 0%=no damage), read-out: Pre-emergence herbicidal activity (percentage phytotoxicity) AVEFA PRE).
For `Cc1cc(-c2ccc(Cl)nn2)cc(C)c1C1C(=O)CC(CC(=O)NCc2ncccc2Cl)C1=O` (stereo not shown) [Compound A155], the pest or weed control at 250 g/ha is 90% in assay [1] (setting [3]); 70% in assay [1] (setting [4]); 70% with Lolium perenne (LOLPE) (setting [5]); 70% in the assay with Lolium perenne (LOLPE) (setting [6]); 50% in assay [2] (setting [7]); 40% in assay [2] (setting [8]). The results for the pest or weed control at 250 g/ha with Avena fatua (AVEFA) (setting [9]) and in the assay on Avena fatua (AVEFA) (setting [10]) were 70% and 100%, respectively.
For `Cc1cc(-c2ccc(Cl)nn2)cc(C)c1C1C(=O)CC(CC(=O)NCc2cccs2)C1=O` (stereo not shown) [Compound A151], the pest or weed control at 250 g/ha in assay [1] (setting [3]) is 70%; in assay [1] (setting [4]) it was 100%; with Lolium perenne (LOLPE) (setting [5]) it was 40%; in the assay on Lolium perenne (LOLPE) (setting [6]), 80%; in assay [2] (setting [7]) it was 40%; in assay [2] (setting [8]), 40%. Further, the pest or weed control at 250 g/ha is 50% with Avena fatua (AVEFA) (setting [9]) and 70% in the assay on Avena fatua (AVEFA) (setting [10]).
Take `Cc1cc(-c2ncc(Cl)cn2)cc(C)c1C1C(=O)CC(CC(=O)NC/C=C/Cl)C1=O` (stereo not shown) [Compound B352]: the pest or weed control at 250 g/ha was 100% in assay [1] (post-emergence, 360 h, Rate 250 g/ha, post-emergence, visual assessment 15 DAA, 100%=total damage, 0%=no damage, read-out: Post-emergence herbicidal activity (percentage phytotoxicity) ECHCG POST); 100% in assay [1] (pre-emergence, 480 h, Rate 250 g/ha, pre-emergence, visual assessment 20 DAA, 100%=total damage, 0%=no damage, read-out: Pre-emergence herbicidal activity (percentage phytotoxicity) ECHCG PRE); 100% in the assay with Lolium perenne (LOLPE) (post-emergence, 360 h, Rate 250 g/ha, post-emergence, visual assessment 15 DAA, 100%=total damage, 0%=no damage, read-out: Post-emergence herbicidal activity (percentage phytotoxicity) LOLPE POST); 90% in the assay with Lolium perenne (LOLPE) (pre-emergence, 480 h, Rate 250 g/ha, pre-emergence, visual assessment 20 DAA, 100%=total damage, 0%=no damage, read-out: Pre-emergence herbicidal activity (percentage phytotoxicity) LOLPE PRE); 100% in assay [2] (post-emergence, 360 h, Rate 250 g/ha, post-emergence, visual assessment 15 DAA, 100%=total damage, 0%=no damage, read-out: Post-emergence herbicidal activity (percentage phytotoxicity) ALOMY POST); 100% in assay [2] (pre-emergence, 480 h, Rate 250 g/ha, pre-emergence, visual assessment 20 DAA, 100%=total damage, 0%=no damage, read-out: Pre-emergence herbicidal activity (percentage phytotoxicity) ALOMY PRE). Further, the pest or weed control at 250 g/ha turned out to be 90% with Avena fatua (AVEFA) (post-emergence, 360 h, Rate 250 g/ha, post-emergence, visual assessment 15 DAA, 100%=total damage, 0%=no damage, read-out: Post-emergence herbicidal activity (percentage phytotoxicity) AVEFA POST) and 90% with Avena fatua (AVEFA) (pre-emergence, 480 h, Rate 250 g/ha, pre-emergence, visual assessment 20 DAA, 100%=total damage, 0%=no damage, read-out: Pre-emergence herbicidal activity (percentage phytotoxicity) AVEFA PRE).
Take `Cc1cc(-c2cnc(Cl)cn2)cc(C)c1C1C(=O)CC(CC(=O)NCc2cccc(C(F)(F)F)c2)C1=O` (stereo not shown) [Compound A133]: the pest or weed control at 250 g/ha worked out at 100% in assay [1] (setting [3]); 90% in assay [1] (setting [4]); 80% with Lolium perenne (LOLPE) (setting [5]); 80% with Lolium perenne (LOLPE) (setting [6]); 90% in assay [2] (setting [7]); 100% in the assay with Avena fatua (AVEFA) (setting [9]). Besides, the pest or weed control at 250 g/ha in the assay with Avena fatua (AVEFA) (setting [10]) came to 90%. Moreover, in assay [2] (Rate 250 g/ha, pre-emergence, assessed visually 20 DAA, 100%=total damage, 0%=no damage), the “Pre-emergence herbicidal activity (percentage phytotoxicity) ALOMY PRE” value amounted to 30%.
`Cc1cc(-c2ncc(F)cn2)cc(C)c1C1C(=O)CC(CC(=O)N(C)Cc2cccc(F)c2)C1=O` (stereo not shown) [Compound B273]: the pest or weed control at 250 g/ha in assay [1] (setting [11]) stood at 100%; in assay [1] (setting [12]), 100%; with Lolium perenne (LOLPE) (setting [13]) it was 100%; in the assay on Lolium perenne (LOLPE) (setting [14]), 100%; in assay [2] (setting [15]), 100%; in assay [2] (setting [16]) it was 90%. In addition, the pest or weed control at 250 g/ha is 100% in the assay on Avena fatua (AVEFA) (setting [17]) and 90% in the assay on Avena fatua (AVEFA) (setting [18]).
In the case of `C#CCN(C)C(=O)CC1CC(=O)C(c2c(C)cc(-n3cc(Cl)cn3)cc2CC)C1=O` (stereo not shown) [Compound B240], the pest or weed control at 250 g/ha in assay [1] (setting [11]) turned out to be 100%; in assay [1] (setting [12]) it was 90%; with Lolium perenne (LOLPE) (setting [13]), 100%; with Lolium perenne (LOLPE) (setting [14]) it was 90%; in assay [2] (setting [15]), 100%; in assay [2] (setting [16]) it was 100%. Besides, the pest or weed control at 250 g/ha in the assay with Avena fatua (AVEFA) (setting [17]) turned out to be 100%; in the assay on Avena fatua (AVEFA) (setting [18]), 90%.
